According to ChEMBL document CHEMBL5120957, “SARS-CoV-2: Novel Therapeutic Approaches for Diagnosis and Treatment” (ACS Med Chem Lett, 2022):

Molecular target: Integrin alpha-V/beta-6 (Homo sapiens, UniProt P06756+P18564)
Experiment: Inhibition of recombinant human alphavbeta6 integrin incubated for 2 hrs by microplate reader assay
Assay type: protein-complex assay

Integrin alpha-V/beta-6, sequence (P06756 31-889 limits assumed): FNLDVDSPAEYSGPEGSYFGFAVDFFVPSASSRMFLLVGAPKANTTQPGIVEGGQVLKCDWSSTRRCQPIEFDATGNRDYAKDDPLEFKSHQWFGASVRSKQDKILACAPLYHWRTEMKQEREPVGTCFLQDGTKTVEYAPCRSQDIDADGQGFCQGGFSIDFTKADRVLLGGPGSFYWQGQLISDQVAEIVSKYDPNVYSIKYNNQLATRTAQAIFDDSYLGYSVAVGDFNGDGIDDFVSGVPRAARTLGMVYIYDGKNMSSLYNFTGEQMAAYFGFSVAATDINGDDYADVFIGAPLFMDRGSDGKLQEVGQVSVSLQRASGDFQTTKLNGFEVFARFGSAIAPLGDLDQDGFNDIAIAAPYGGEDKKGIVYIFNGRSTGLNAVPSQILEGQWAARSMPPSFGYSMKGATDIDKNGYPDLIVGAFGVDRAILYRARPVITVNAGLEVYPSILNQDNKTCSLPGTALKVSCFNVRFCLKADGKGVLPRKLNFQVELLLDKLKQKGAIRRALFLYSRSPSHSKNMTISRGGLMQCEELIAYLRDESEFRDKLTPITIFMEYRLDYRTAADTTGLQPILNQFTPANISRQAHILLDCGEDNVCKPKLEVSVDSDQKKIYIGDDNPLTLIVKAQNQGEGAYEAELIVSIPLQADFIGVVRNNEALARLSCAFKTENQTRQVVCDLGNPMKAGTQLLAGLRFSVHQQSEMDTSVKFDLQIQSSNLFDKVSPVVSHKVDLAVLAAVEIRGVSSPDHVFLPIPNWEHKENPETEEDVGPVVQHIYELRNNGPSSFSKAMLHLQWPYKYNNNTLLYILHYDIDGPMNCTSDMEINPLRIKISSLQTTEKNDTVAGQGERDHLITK
Integrin alpha-V/beta-6, sequence (P06756 891-1048 limits assumed): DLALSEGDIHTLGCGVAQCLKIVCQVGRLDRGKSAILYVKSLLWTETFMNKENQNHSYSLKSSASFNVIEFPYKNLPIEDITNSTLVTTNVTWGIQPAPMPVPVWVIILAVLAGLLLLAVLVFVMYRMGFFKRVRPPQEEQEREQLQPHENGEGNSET
Integrin alpha-V/beta-6, sequence (P18564 22-788 limits assumed): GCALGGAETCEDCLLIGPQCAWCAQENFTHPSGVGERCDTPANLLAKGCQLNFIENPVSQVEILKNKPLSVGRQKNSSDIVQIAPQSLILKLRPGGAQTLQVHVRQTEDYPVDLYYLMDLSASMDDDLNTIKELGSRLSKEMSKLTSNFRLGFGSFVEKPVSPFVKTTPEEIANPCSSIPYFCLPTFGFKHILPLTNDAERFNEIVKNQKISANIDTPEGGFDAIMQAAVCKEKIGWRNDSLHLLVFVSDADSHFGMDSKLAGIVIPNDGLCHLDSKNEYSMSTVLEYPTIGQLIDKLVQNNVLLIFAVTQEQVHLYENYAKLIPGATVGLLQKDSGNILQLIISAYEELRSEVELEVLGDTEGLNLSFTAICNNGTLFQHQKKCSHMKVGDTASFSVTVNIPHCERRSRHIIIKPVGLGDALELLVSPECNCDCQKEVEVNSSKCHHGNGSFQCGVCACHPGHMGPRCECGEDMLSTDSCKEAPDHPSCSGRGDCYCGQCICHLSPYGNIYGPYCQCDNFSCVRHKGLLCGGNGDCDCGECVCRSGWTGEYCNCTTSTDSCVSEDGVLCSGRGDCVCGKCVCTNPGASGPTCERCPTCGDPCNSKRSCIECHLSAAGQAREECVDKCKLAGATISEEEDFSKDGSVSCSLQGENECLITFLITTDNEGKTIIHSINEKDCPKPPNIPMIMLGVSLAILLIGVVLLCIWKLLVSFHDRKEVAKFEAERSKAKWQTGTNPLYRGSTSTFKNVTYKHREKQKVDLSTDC

| SMILES | IC50 |
| --- | --- |
| O=C(O)[C@H](CCN(CCCCc1ccc2c(n1)NCCC2)CCC(F)F)Nc1ncnc2ccccc12 | < 50 nM |
| CO[C@H](C)CN(CCCCc1ccc2c(n1)NCCC2)CC[C@H](Nc1ncnc2ccccc12)C(=O)O | < 50 nM |
| COCCN(CCCCc1ccc2c(n1)NCCC2)CC[C@H](Nc1cc(-n2cccn2)ncn1)C(=O)O | < 50 nM |
| COCCN(CCCCc1ccc2c(n1)NCCC2)CC[C@H](Nc1ncnc2cc(C(F)(F)F)ccc12)C(=O)O | 50 nM |
| COCCN(CCCCc1ccc2c(n1)NCCC2)CC[C@H](Nc1ncnc2cc(F)ccc12)C(=O)O | < 50 nM |
| COCCN(CCCCc1ccc2c(n1)NCCC2)CC[C@H](Nc1ncnc2ccccc12)C(=O)O [BEXOTEGRAST] | < 50 nM |
